# “Also recorded” adds a separate entry of the source.
# Columns and labels:
# cortical neurons = test: glutamate-induced neuronal death in cultured cortical neurons; assay type: cell-based, rats; conditions: 300 μM glutamate for 24 hours
# Protocol: Primary cultured cells were used as a model to evaluate the subject small molecule effect on CNS. Glutamate neurotoxicity can be most directly studied using neurons prepared from the brain at the late embryonic stage and subsequently cultured for maturation. To examine the effect of the subject small molecules (E5A24 and E5A29) on glutamate-induced neuronal death, cortical neurons isolated from embryonic day 18 rats, were cultured for 10 days. Subsequently, neurons were treated for 24 hours with or without the subject small molecules, and further exposed to 300 μM glutamate for 24 hours. After glutamate was washed out, the cells were cultured for another 24 hours. During the glutamate challenge and subsequent culture, the subject small molecules were absent. Finally, the cell viability was examined. […] Experiments were performed according to the literature (Morishita et. al., Neuroscience 76, 105, 1997).
# mouse bone marrow cells = test: formation of erythroid colonies from mouse bone marrow in methylcellulose; assay type: cell-based
# Protocol: (§1) Mouse or human bone marrow cells were stimulated in methylcellulose for 7 days (mouse) or 14 days (human) with non-peptide EPO-R modulators. Formation of erythroid colonies was observed. (See FIGS. 6 to 8)
# Bone marrow cells were isolated from mouse femurs. Cells were washed twice with PBS and resuspended to a density of 6.5×10^6 cells/ml in media. 300 μl (6.5×10^5/ml) of cells were mixed with 1.5 ml of methylcellulose media (Stemcell Technology) to which the desired concentration of compound or the EPO was added. The mixture was poured onto 35 mm dishes; all the conditions are performed in duplicates. The incubation was for […] at 37° C., 5% CO2. The colonies were scored on day seven.
# After thawing methylcellulose overnight, the next morning, 20 ml of Iscove's MDM+2%FBS is added to the bottle to achieve 100 ml total. The bottle is mixed for at least 30 seconds and settled for about 10 minutes. 10 cc syringes are used to aliquot 3 ml per minisorp tube.
# TF-1 cells = test: cell proliferation; assay type: cell-based; conditions: 96 hours
# Protocol: TF-1 cells were stimulated for 96 hours with different non-peptide EPO-R modulators, and it was observed that the non-peptide EPO binding molecules stimulated cellular proliferation in dose-responsive manner and to the extent of the natural hormone.
# human bone marrow cells = test: formation of erythroid colonies from human bone marrow in methylcellulose; assay type: cell-based
# Protocol: as §1
# (1) Dilute human bone marrow 1:1 with sterile PBS. (2) Slowly layer bone marrow into 50 ml tubes containing 20 ml of LSM Lymphocyte separation medium (ICN/Cappel—cat #50494). 50 ml bone marrow will yield 2 tubes. (3) Spin tubes at 2000 rpm for 30 minutes with brake off. (4) Slowly take out the middle layer using a 10 ml pipette and transfer into a new 50 ml tube. (5) Add PBS+0.5% BSA+5 mM EDTA to tube for washing. (6) Spin tube for 5 minutes at speed 4 with brake on. (7) Repeat wash step 2 more times. (8) After 3rd wash, resuspend pellet in SF Iscoves' MDM medium. (9) Count by diluting cells in 3% acetic acid. (10) Dilute cells to desired concentration (5×10^5 cells/ml) and seed onto methylcellulose.
# (1) Tubes containing 3.0 ml of methylcellulose medium (Stemcell Technology, cat # H4230) supplemented with 50 ng/ml hSCF are prepared. (Alternatively the methylcellulose could be supplemented with 50 ng/ml hSCF, 20 ng/ml of hIL-3 and hIL-6). (2) Compounds or EPO of desired concentrations are added to the tubes. “Control” tubes or tubes that will receive EPO are supplemented with DMSO to a final concentration of 0.16%. […] Colonies are scored on day twelve.
# TF-1 and UT-7 cells = test: biological testing in cell lines (cell proliferation and cell signaling); assay type: cell-based; conditions: biological testing in cell line
# Source text: Compounds identified in the initial screen were further tested for their biological activity in two assays: a cell proliferation assay and a cell signaling assay in TF-1 and UT-7 cells. The hit rate in cell proliferation was 0.16%; hit rate in cell signaling was 0.25%.
# Compounds identified in the initial screen were further tested for their biological activity in two assays: a cell proliferation assay and a cell signaling assay in TF-1 cells. The hit rate in cell proliferation was 0.16%; hit rate in cell signaling was 0.25%.
# [1] = test system: EPO-Receptor down stream signaling pathway; test: in vitro signaling (phosphorylation of EPO-R, JAK2, STAT1, STAT3, STAT5); assay type: cell-based; conditions: UT-7 cells
# Protocol: UT-7 cells were grown in Minimal Essential Medium Alpha (MEM-α) containing 20% FBS, 1.5 g/L NaHCO3, 5 ng/ml GM-CSF, and 100U Penicillin/100 μg/ml Streptomycin Sulfate (“P/S”), in T150 flasks (60 ml/flask) at 37° C., 5% CO2 to a density of no more than 5×10^5 cells/ml. The cells were starved overnight in MEM-α containing 10% FBS, 1.5 g/L NaHCO3 and P/S in T150 flasks (60 ml/flask) at a density of 5×10^5 cells/ml, in 5% CO2, 37° C. The cells were then centrifuged in a swinging-bucket rotor at 200×g for 5 minutes at room temperature. The supernatant was removed, and the cells pooled into one 50 ml conical tube. The cells were washed twice with serum-free medium (MEM-α containing 1.5 g/L NaHCO3 and P/S). After the last wash, the cells were resuspended to a density of 1×10^7 cells/ml in serum-free medium. The cells were then placed in 15 ml conical tubes in 1 ml aliquots and incubated with the caps loosened for 1 hour at 37° C., 5% CO2. Every 10 minutes, the lower portion of each tube was tapped (flicked) several times to prevent the cells from settling (please note, this step is very important!)
# It was also observed that EPO-R was phosphorylated when stimulated with non-peptide EPO-R modulators. (See FIG. 4) […]
# P-19 cells = test: cell survival of P-19 cells after withdrawal of serum; assay type: cell-based; conditions: P19 cells; treated 24 hours before, serum withdrawn for 48 hours
# Protocol: Experiments were performed according to the described protocol. The anti-apoptotic effect of the subject small molecules was evaluated in P-19 cells (a neural-like embryonal carcinoma cell line) that undergo apoptosis upon withdrawal of serum. Briefly, cells were treated with small molecules for 24 hours prior to serum withdrawal. Serum was withdrawn for 48 hours in the presence or absence of a subject small molecule (EM5 and E5A24). At the end of that period, cell survival was evaluated. […] This Figure is representative of the experiment and of the subject small molecules. The experiments were performed according to literature procedures (Siren et.al., Proc. Nat. Acad. Sci. 98, 4044, 2001). Cell survival was determined according to the protocol described for cellular proliferation.
# Bcl-xl protein = test: up-regulation of Bcl-xl expression (immunoprecipitation, western blot); assay type: cell-based
# Protocol: When the subject compounds were tested for anti-apoptotic effect was evaluated, these antibodies were used: Anti-Bcl-X1/s antibody (Santa Cruz Biotechnology, SC-1041), Anti-Bcl-X1 antibody (Santa Cruz Biotechnology, SC8392)
# A number of molecules of the subject invention were evaluated in in vitro systems that reflect the condition of cerebral ischemia and metabolic stress. Firstly, it is known that one of the mechanisms by which EPO prevents neuronal apoptosis is by up-regulating the expression levels of Bcl-x1 protein, which is a well-described anti-apoptotic protein. Thus, cells-lines that are known to be EPO responsive (UT-7 and TF-1, used in previous studies) were used as a cellular system to examine the small molecules' anti-apoptotic activity through EPO-R.
# The evaluation was performed by starving the cells, stimulating the cells with compounds at appropriate concentrations (or no stimulation for control samples) and immunoprecipitating the cell lysates with antibody specific to both forms (short and long) of Bcl-x1 protein. The amount of Bcl-x1 (long protein form, known to have anti-apoptotic activity) protein was evaluated by western blot analysis.
structure (smiles),measurement,setting,value
Cc1n[nH]c2c1C(c1ccco1)C1=C(CC(C)(C)CC1=O)N2 (centres unmarked) [Cmpnd E5A29],cell survival of cortical neurons after glutamate challenge,cortical neurons,prevented glutamate induced neuronal death in a dose-responsive manner; also recorded: increased cell survival
same,increase of cell survival,cortical neurons; cortical neurons,60%
Cc1ccc(Cl)cc1Nc1nc2nc(C)c(NCC3CC3)cn2n1 [Cmpnd E5],erythroid colony formation (CFU-e),mouse bone marrow cells,stimulate CFU-e formation to the same extent as EPO
same,cellular proliferation,TF-1 cells,proliferative effect
same,erythroid colony formation (CFU-e),human bone marrow cells,stimulate CFU-e formation to the same extent as EPO
same,maximum activity compared to EPO natural hormone,TF-1 and UT-7 cells,maximum activity comparable to that of the maximum activity of EPO
same,activation of EPO-R,[1],activation of EPO-R
Cn1ncc(S(=O)Oc2ccccc2)c(Cl)c1=O (centres unmarked) [Cmpnd E6],erythroid colony formation (CFU-e),mouse bone marrow cells,stimulate CFU-e formation to the same extent as EPO
same,erythroid colony formation (CFU-e),human bone marrow cells,stimulate CFU-e formation to the same extent as EPO
same,maximum activity compared to EPO natural hormone,TF-1 and UT-7 cells,maximum activity comparable to that of the maximum activity of EPO
Cc1cc(NCC2CC2)n2nc(Nc3cc(Cl)ccc3C)nc2n1 [EM5],cell viability / protection from apoptosis after withdrawal of serum,P-19 cells,protect cells from apoptosis; also recorded: increased cell viability
same,Bcl-xl expression,Bcl-xl protein; TF-1 cells,up-regulation of Bcl-xl expression
same,Bcl-xl expression,Bcl-xl protein; UT-7 cells,up-regulation of Bcl-xl expression
same,Bcl-x1 protein up-regulation,Bcl-xl protein; both cell lines (UT-7 and TF-1),induced up-regulation of Bcl-x1 protein in a dose-responsive manner
